In patent US20260152485A1, “ISOINDOLINONE DERIVATIVE HAVING QUINOLINE AMIDE STRUCTURE, AND USE THEREOF” (ONCORD BIO INC, priority 2022, published 2026):

Assays:
[1] = system: NCI-H1155 (lung cancer cells); experiment: CytoX cell viability assay, NCI-H1155 cells; format: cell-based; conditions: 72 hours; for viability at 0.01 µM / viability at 0.5 µM: Homo sapiens
Method: The viability of NCI-H1155 (lung cancer cells) was measured using the CytoX cell viability assay kit (LPS Solution, #CYT3000). NCI-H1155 cells were seeded in a 12-well plate, and each compound of the present disclosure and a comparative compound (CC-90009) were treated at 10 nM and 500 nM concentrations for 72 hours. CytoX solution was then added to the cells and incubated for 1 hour.

KG-1 cancer cells = experiment: Cytotoxicity assay (WST-1), KG-1 cells; format: cell-based; conditions: Homo sapiens, 72 hours
Method: Cancer cells (KG-1) were seeded at a density of 10,000 cells per well in 96-well plates. The compound of the present disclosure and control compounds (Comparative Compounds 1, 2, and 3) were treated at predetermined concentrations. After 72 hours, the cells were treated with WST-1 reagent for 1 hour. Then, absorbance was read at 450 nm using a SpectraMax spectrophotometer to determine cell viability.

| SMILES | IC50 (KG-1 cancer cells) | viability at 0.01 µM ([1]; 10 nM) | viability at 0.5 µM ([1]; 500 nM) | also measured |
| --- | --- | --- | --- | --- |
| O=C1CCC(N2Cc3cc(CNC(=O)C(F)(F)c4ccc(Cl)cc4)ccc3C2=O)C(=O)N1 (stereo not shown) [CC-90009, reference compound] | – | – | – | NCI-H1155 (% viability) at 10 nM ([1]; 10 nM): 85.0%; NCI-H1155 (% viability) at 500 nM ([1]; 500 nM): 23.25% |
| O=C1CCC(N2Cc3cc(CNC(=O)c4cc(-c5ccccc5)nc5ccccc45)ccc3C2=O)C(=O)N1 (stereo not shown) [Cpd. 1, N-((2-(2,6-dioxopiperidin-3-yl)-1-oxoisoindolin-5-yl)methyl)-2-phenylquinoline-4-carboxamide] | 0.8 nM | – | – | – |
| CC(C)c1ccc(-c2cc(C(=O)NCc3ccc4c(c3)CN(C3CCC(=O)NC3=O)C4=O)c3ccccc3n2)cc1 (stereo not shown) [Cpd. 2, N-((2-(2,6-dioxopiperidin-3-yl)-1-oxoisoindolin-5-yl)methyl)-2-(4-isopropylphenyl)quinoline-4-carboxamide] | 1.5 nM | – | – | – |
| Cc1ccc2nc(-c3ccccc3)cc(C(=O)NCc3ccc4c(c3)CN(C3CCC(=O)NC3=O)C4=O)c2c1 (stereo not shown) [Cpd. 3, N-((2-(2,6-dioxopiperidin-3-yl)-1-oxoisoindolin-5-yl)methyl)-6-methyl-2-phenylquinoline-4-carboxamide] | 14 nM | – | – | – |
| Cc1cccc2c(C(=O)NCc3ccc4c(c3)CN(C3CCC(=O)NC3=O)C4=O)cc(-c3ccccc3)nc12 (stereo not shown) [Cpd. 4, N-((2-(2,6-dioxopiperidin-3-yl)-1-oxoisoindolin-5-yl)methyl)-8-methyl-2-phenylquinoline-4-carboxamide] | 1 nM | – | – | – |
| O=C1CCC(N2Cc3cc(CNC(=O)c4cc(-c5ccncc5)nc5ccccc45)ccc3C2=O)C(=O)N1 (stereo not shown) [Cpd. 7, N-((2-(2,6-dioxopiperidin-3-yl)-1-oxoisoindolin-5-yl)methyl)-2-(pyridin-4-yl)quinoline-4-carboxamide] | – | 50% | 5% | – |
| O=C1CCC(N2Cc3cc(CNC(=O)c4cc(Cl)nc5ccccc45)ccc3C2=O)C(=O)N1 (stereo not shown) [Cpd. 8, 2-chloro-N-((2-(2,6-dioxopiperidin-3-yl)-1-oxoisoindolin-5-yl)methyl)quinoline-4-carboxamide] | – | 86% | 23% | – |
| O=C1CCC(N2Cc3cc(CNC(=O)c4ccnc5ccccc45)ccc3C2=O)C(=O)N1 (stereo not shown) [Cpd. 9, N-((2-(2,6-dioxopiperidin-3-yl)-1-oxoisoindolin-5-yl)methyl)quinoline-4-carboxamide] | – | 88% | 25% | – |
| Cc1cccc2c(C(=O)NCc3ccc4c(c3)CN(C3CCC(=O)NC3=O)C4=O)cc(-c3cccnc3)nc12 (stereo not shown) [Cpd. 10, N-((2-(2,6-dioxopiperidin-3-yl)-1-oxoisoindolin-5-yl)methyl)-8-methyl-2-(pyridin-3-yl)quinoline-4-carboxamide] | – | 3% | 4% | – |
| Cc1c(-c2ccccc2)nc2ccccc2c1C(=O)NCc1ccc2c(c1)CN(C1CCC(=O)NC1=O)C2=O (stereo not shown) [Cpd. 12, N-((2-(2,6-dioxopiperidin-3-yl)-1-oxoisoindolin-5-yl)methyl)-3-methyl-2-phenylquinoline-4-carboxamide] | – | 59% | 24% | – |
| Cc1ccccc1-c1cc(C(=O)NCc2ccc3c(c2)CN(C2CCC(=O)NC2=O)C3=O)c2ccccc2n1 (stereo not shown) [Cpd. 13, N-((2-(2,6-dioxopiperidin-3-yl)-1-oxoisoindolin-5-yl)methyl)-2-(o-tolyl)quinoline-4-carboxamide] | – | 32% | 26% | – |
| O=C1CCC(N2Cc3cc(CNC(=O)c4cc(-c5ccc(F)cc5)nc5ccccc45)ccc3C2=O)C(=O)N1 (stereo not shown) [Cpd. 14, N-((2-(2,6-dioxopiperidin-3-yl)-1-oxoisoindolin-5-yl)methyl)-2-(4-fluorophenyl)quinoline-4-carboxamide] | – | 33% | 23% | – |
| O=C1CCC(N2Cc3cc(CNC(=O)c4cc(-c5ccccc5F)nc5ccccc45)ccc3C2=O)C(=O)N1 (stereo not shown) [Cpd. 15, N-((2-(2,6-dioxopiperidin-3-yl)-1-oxoisoindolin-5-yl)methyl)-2-(2-fluorophenyl)quinoline-4-carboxamide] | – | 31% | 26% | – |
| O=C1CCC(N2Cc3cc(CNC(=O)c4cc5ccccc5cn4)ccc3C2=O)C(=O)N1 (stereo not shown) [compound 1, N-((2-(2,6-dioxopiperidin-3-yl)-1-oxoisoindolin-5-yl)methyl)isoquinoline-3-carboxamide, reference compound] | > 10000 nM | – | – | – |
| O=C1CCC(N2Cc3cc(CNC(=O)c4cnc5ccccc5n4)ccc3C2=O)C(=O)N1 (stereo not shown) [compound 2, N-((2-(2,6-dioxopiperidin-3-yl)-1-oxoisoindolin-5-yl)methyl)quinolxaline-2-carboxamide, reference compound] | > 10000 nM | – | – | – |
| O=C1CCC(N2Cc3cc(CNC(=O)c4ccc5cc(Cl)ccc5n4)ccc3C2=O)C(=O)N1 (stereo not shown) [compound 3, 6-chloro-N-((2-(2,6-dioxopiperidin-3-yl)-1-oxoisoindolin-5-yl)methyl)quinoline-2-carboxamide, reference compound] | 4100 nM | – | – | – |
